The text below walks through data of US9643967B2, “Pyrrolo[3,2-c]pyridine derivatives as TLR inhibitors” (TAKEDA PHARMACEUTICAL COMPANY LIMITED, priority 2013, dated 2017).

This test addresses T1, hTLR9 (Homo sapiens, UniProt Q9NR96).
T1 construct: expressed in transfected cells; host or cells: HEK-Blue-hTLR9 cells (HEK293)
T1 sequence (Q9NR96 26-1032): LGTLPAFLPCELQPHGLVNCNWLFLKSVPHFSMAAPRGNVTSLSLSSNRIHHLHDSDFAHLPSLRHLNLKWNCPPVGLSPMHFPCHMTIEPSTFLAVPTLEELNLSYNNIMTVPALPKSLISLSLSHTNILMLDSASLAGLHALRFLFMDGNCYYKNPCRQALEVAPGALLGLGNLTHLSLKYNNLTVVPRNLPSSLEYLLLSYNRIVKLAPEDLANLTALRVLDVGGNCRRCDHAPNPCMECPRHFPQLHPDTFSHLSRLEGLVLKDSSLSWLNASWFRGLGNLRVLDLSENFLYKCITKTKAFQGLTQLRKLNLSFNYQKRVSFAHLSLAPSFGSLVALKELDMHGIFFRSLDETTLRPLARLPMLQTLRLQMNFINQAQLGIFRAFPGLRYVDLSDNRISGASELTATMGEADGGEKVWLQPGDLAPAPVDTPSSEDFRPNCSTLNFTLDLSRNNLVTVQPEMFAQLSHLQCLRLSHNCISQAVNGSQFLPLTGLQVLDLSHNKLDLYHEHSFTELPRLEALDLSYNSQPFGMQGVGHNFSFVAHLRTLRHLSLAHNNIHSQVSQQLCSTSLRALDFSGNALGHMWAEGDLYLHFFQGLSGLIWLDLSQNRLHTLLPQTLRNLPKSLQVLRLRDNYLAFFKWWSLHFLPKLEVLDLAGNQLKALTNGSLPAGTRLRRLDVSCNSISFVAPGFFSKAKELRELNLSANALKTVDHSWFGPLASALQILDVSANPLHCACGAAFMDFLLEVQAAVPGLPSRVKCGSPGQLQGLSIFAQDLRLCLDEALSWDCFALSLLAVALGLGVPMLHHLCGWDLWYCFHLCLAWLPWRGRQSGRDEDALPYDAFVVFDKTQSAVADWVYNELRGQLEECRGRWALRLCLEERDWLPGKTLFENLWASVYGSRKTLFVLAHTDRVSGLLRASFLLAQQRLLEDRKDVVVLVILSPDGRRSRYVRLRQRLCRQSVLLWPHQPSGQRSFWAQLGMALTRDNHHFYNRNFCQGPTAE
In words: hTLR9 antagonism (SEAP inhibition assay) in HEK-Blue-hTLR9 (HEK293) cells, ODN-2006 stimulated. The format is cell-based. Particulars: HEK-Blue hTLR9, 1 μM; SEAP, HEK-Blue-hTLR9 cells; read-out: hTLR9 inhibitory activity (% at 1 μM). The procedure: hTLR9 Antagonism (SEAP Inhibition Assay) in HEK293 Cell Lines
The SEAP reporter gene in HEK-Blue™-hTLR9 cells is placed under the control of the IFN-b minimal promoter fused to five NF-kB and AP-1 binding sites. The stimulation with a TLR9 ligand (ODN-2006) activates NF-kB and AP-1 which induces the production of SEAP. Levels of SEAP are determined with QUANTI-Blue™ detection medium that turns purple/blue in the presence of alkaline phosphatase. Decrease in the levels of SEAP production as indicated by reduction in absorbance at 650 nm is directly co-related with the TLR9 inhibitory activity of the antagonist (NCE).
HEK-Blue™-hTLR9 cells were maintained in DMEM with 10% FBS, 1% Penicillin/Streptomycin/Amphotericin (complete growth medium) and 0.2% Normocin. For the assay, cells were dissociated by washing in 1×PBS and re-suspended in complete DMEM. Cells were seeded at a density of 20000 cells per well; (40 μl per well) in a 384 well assay plate.
5 μl of 10× antagonist (NCE) was added to the cells in triplicates for each concentration. The plate was incubated for half an hour at 37° C. with 5% CO2. 5 μl of agonist (ODN-2006) was added and the plate was incubated overnight for 18 hours at 37° C. with 5% CO2. 5 μl of supernatant was transferred to a 384 well reading plate and to this 45 μl of Quanti-Blue™ detection reagent was added. The plate was then incubated for an hour at 37° C. SEAP activity in the supernatant was indicated by change in the pink color of Quanti-Blue™ detection reagent to purple/blue and the absorbance was read at 650 nm in the end point mode.
As to `CC1(O)CCN(c2ccc(-c3nccc4[nH]c(CN5CCOCC5)cc34)cc2)CC1` [Example A10, 4-methyl-1-[4-[2-(morpholinomethyl)-1H-pyrrolo[3,2-c]pyridin-4-yl]phenyl] piperidin-4-ol], the inhibition at 1 µM is 29%. In the case of `C1=C(c2ccc(-c3nccc4[nH]c(CN5CCOCC5)cc34)cc2)CCN(C2COC2)C1` [Example A11, 4-[[4-[4-[1-(oxetan-3-yl)-3,6-dihydro-2H-pyridin-4-yl]phenyl]-1H-pyrrolo[3,2-c]pyridin-2-yl]methyl] morpholine] it was 77.5%; in that of `CC(C)N1CCN(c2ccc(-c3nccc4[nH]c(CN5CCC(F)(F)C5)cc34)cc2)CC1` [Example A18, 2-[(3,3-difluoropyrrolidin-1-yl)methyl]-4-[4-(4-isopropylpiperazin-1-yl)phenyl]-1H-pyrrolo[3,2-c]pyridine], 100%; in that of `CC(C)N1CCN(C(=O)c2ccc(-c3nccc4[nH]c(CN5CCOCC5)cc34)cc2)CC1` [Example A19, (4-isopropylpiperazin-1-yl)-[4-[2-(morpholinomethyl)-1H-pyrrolo[3,2-c]pyridin-4-yl]phenyl] methanone], 90%. Turning to `CN1CCN(C(=O)c2ccc(-c3nccc4[nH]c(CN5CCOCC5)cc34)cc2)CC1` [Example A22, (4-methylpiperazin-1-yl)-[4-[2-(morpholinomethyl)-1H-pyrrolo[3,2-c]pyridin-4-yl]phenyl] methanone], the inhibition at 1 µM amounted to 62%. In the case of `Cc1cc2[nH]c(CN3CCC(F)CC3)cc2c(-c2ccc(N3CCN(C(C)C)CC3)cc2)n1` [Example A27, 2-[(4-fluoro-1-piperidyl)methyl]-4-[4-(4-isopropylpiperazin-1-yl)phenyl]-6-methyl-1H-pyrrolo[3,2-c]pyridine] it was 96.4%; in that of `CN1CCN(c2ccc(-c3nc(C(F)(F)F)cc4[nH]c(CN5CCOCC5)cc34)cc2)CC1` [Example A31, 4-[[4-[4-(4-methylpiperazin-1-yl)phenyl]-6-(trifluoromethyl)-1H-pyrrolo[3,2-c]pyridin-2-yl]methyl] morpholine], 66%; in that of `CC(C)N1CCN(c2ccc(-c3nc(C(F)(F)F)cc4[nH]c(CN5CCOCC5)cc34)cc2)CC1` [Example A32, 4-[[4-[4-(4-isopropylpiperazin-1-yl)phenyl]-6-(trifluoromethyl)-1H-pyrrolo[3,2-c]pyridin-2-yl]methyl] morpholine], 49%. In the case of `c1cc2[nH]c(CN3CCOCC3)cc2c(-c2cnn(C3CCNCC3)c2)n1` [Example A45, 4-[[4-[1-(4-piperidyl)pyrazol-4-yl]-1H-pyrrolo [3,2-c]pyridin-2-yl]methyl] morpholine] it was 76.1%; in that of `c1cc(-c2nccc3[nH]c(CN4CCOCC4)cc23)cc(N2CCNCC2)c1` [Example A46, 4-[[4-(3-(piperazin-1-yl)phenyl)-1H-pyrrolo[3,2-c]pyridin-2-yl]methyl] morpholine], 83.5%.

Regarding `CC(C)N1CCN(c2ncc(-c3nccc4[nH]c(CN5CCOCC5)cc34)s2)CC1` [Example A58, 4-[[4-[2-(4-isopropylpiperazin-1-yl)thiazol-5-yl]-1H-pyrrolo[3,2-c]pyridin-2-yl]methyl]morpholine], the inhibition at 1 µM stood at 98%.

`CN1CCN(c2ccc(-c3nccc4[nH]c(CN5CCOCC5)cc34)cn2)CC1` [Example A59, 4-[[4-[6-(4-methylpiperazin-1-yl)-3-pyridyl]-1H-pyrrolo[3,2-c]pyridin-2-yl]methyl]morpholine]: the inhibition at 1 µM came out at 94.7%. For `c1cc2[nH]c(CN3CCOCC3)cc2c(-c2ccc(C3CCN(C4COC4)CC3)cc2)n1` [Example A65, 4-[[4-[4-[1-(oxetan-3-yl)-4-piperidyl]phenyl]-1H-pyrrolo[3,2-c]pyridin-2-yl]methyl] morpholine], the inhibition at 1 µM was determined as 70.5%. In the case of `COC(=O)C1CCN(c2ccc(-c3nccc4[nH]c(CN5CCOCC5)cc34)cc2)CC1` [Example A67, methyl 1-[4-[2-(morpholinomethyl)-1H-pyrrolo[3,2-c]pyridin-4-yl]phenyl]piperidine-4-carboxylate] it was 27.5%. Next, `O=C(O)C1CCN(c2ccc(-c3nccc4[nH]c(CN5CCOCC5)cc34)cc2)CC1` [Example A68, 1-[4-[2-(morpholinomethyl)-1H-pyrrolo[3,2-c]pyridin-4-yl]phenyl]piperidine-4-carboxylic acid]: 21%. Next, `OC1CCN(c2ccc(-c3nccc4[nH]c(CN5CCOCC5)cc34)cc2)CC1` [Example A69, 1-[4-[2-(morpholinomethyl)-1H-pyrrolo[3,2-c]pyridin-4-yl]phenyl]piperidin-4-ol]: 73.5%; `CC(C)N1CCN(c2ccc(-c3nccc4[nH]c(CN5CCOCC5)c(Cl)c34)cc2)CC1` [Example A71, 4-[[3-chloro-4-[4-(4-isopropylpiperazin-1-yl)phenyl]-1H-pyrrolo[3,2-c]pyridin-2-yl]methyl]morpholine]: 86.1%. Regarding `COC(=O)[C@H]1CCCN1Cc1cc2c(-c3ccc(N4CCN(C(C)C)CC4)cc3)nccc2[nH]1` [Example A73, methyl (2R)-1-[[4-[4-(4-isopropyl-piperazin-1-yl)phenyl]-1H-pyrrolo[3,2-c]pyridin-2-yl]methyl]pyrrolidine-2-carboxylate], the inhibition at 1 µM was 72%.

Turning to `FC(F)(F)CN1CCN(c2ccc(-c3nccc4[nH]c(CN5CCOCC5)cc34)cc2)CC1` [Example A75, 4-[[4-[4-[4-(2,2,2,2-trifluoroethyl)piperazin-1-yl]phenyl]-1H-pyrrolo[3,2-c]pyridin-2-yl]methyl]morpholine], the inhibition at 1 µM was determined as 34.9%. `c1cc2[nH]c(CN3CCOCC3)cc2c(-c2ccc(N3CCN(Cc4cocn4)CC3)cc2)n1` [Example A76, 4-[[4-[4-[4-(oxazol-4-ylmethyl)piperazin-1-yl]phenyl]-1H-pyrrolo[3,2-c]pyridin-2-yl]methyl]morpholine]: the inhibition at 1 µM came to 81.2%. In the case of `CC(C)N1CCN(C2CCC(c3nccc4[nH]c(CN5CCOCC5)cc34)CC2)CC1` (stereo not drawn) [Example A79, 4-[[4-[4-(4-isopropylpiperazin-1-yl)cyclohexyl]-1H-pyrrolo[3,2-c]pyridin-2-yl]methyl]morpholine] it was 100%; in that of `c1cc2[nH]c(CN3CCOCC3)cc2c(-c2ccc(N3CCOCC3)cc2)n1` [Example A83, 4-[4-[2-(morpholinomethyl)-1H-pyrrolo[3,2-c]pyridin-4-yl]phenyl]morpholine], 29.5%; in that of `Cc1nc(-c2ccc(N3CCN(C(C)C)CC3)cc2)c2cc(CCN3CCCCC3)[nH]c2c1C` [Example B9, 4-[4-(4-isopropylpiperazin-1-yl)phenyl]-6,7-dimethyl-2-[2-(1-piperidyl)ethyl]-1H-pyrrolo[3,2-c]pyridine], 95.2%. Next, `Cc1cc2[nH]c(CCCN3CCOCC3)cc2c(-c2ccc(N3CCN(C)CC3)cc2)n1` [Example C4, 4-[3-[6-methyl-4-[4-(4-methylpiperazin-1-yl)phenyl]-1H-pyrrolo[3,2-c]pyridin-2-yl]propyl]morpholine]: 98.7%.
